According to article PMC6277434, “Discovery of a potent HMG-CoA reductase degrader that eliminates statin-induced reductase accumulation and lowers cholesterol” (Nature Communications, 2018):
Values joined by “and” are separate entries in the source; they are usually repeats but may differ in a detail not shown here. Equal entries are not always repeated. Where two headings read alike, the source gives them in different places.

Columns and labels:
HMGCR = target: T1, HMGCR (Cricetulus griseus, UniProt P00347); assay: Immunoblotting of endogenous HMGCR protein in CHO-7 (or CHG) cells; assay type: cell-based, Chinese hamster; settings: for endogenous HMGCR protein level (immunoblot), mean: CHG cells, 16 h, DMSO = 100; for increase of HMGCR protein (maximum increment): CHO-7 cells, statin 16 h, DMSO = 1
T1 construct: endogenous in cells; host or cells: CHO-7, CHG, SRD-13A, SRD-15
T1 sequence (P00347 1-887): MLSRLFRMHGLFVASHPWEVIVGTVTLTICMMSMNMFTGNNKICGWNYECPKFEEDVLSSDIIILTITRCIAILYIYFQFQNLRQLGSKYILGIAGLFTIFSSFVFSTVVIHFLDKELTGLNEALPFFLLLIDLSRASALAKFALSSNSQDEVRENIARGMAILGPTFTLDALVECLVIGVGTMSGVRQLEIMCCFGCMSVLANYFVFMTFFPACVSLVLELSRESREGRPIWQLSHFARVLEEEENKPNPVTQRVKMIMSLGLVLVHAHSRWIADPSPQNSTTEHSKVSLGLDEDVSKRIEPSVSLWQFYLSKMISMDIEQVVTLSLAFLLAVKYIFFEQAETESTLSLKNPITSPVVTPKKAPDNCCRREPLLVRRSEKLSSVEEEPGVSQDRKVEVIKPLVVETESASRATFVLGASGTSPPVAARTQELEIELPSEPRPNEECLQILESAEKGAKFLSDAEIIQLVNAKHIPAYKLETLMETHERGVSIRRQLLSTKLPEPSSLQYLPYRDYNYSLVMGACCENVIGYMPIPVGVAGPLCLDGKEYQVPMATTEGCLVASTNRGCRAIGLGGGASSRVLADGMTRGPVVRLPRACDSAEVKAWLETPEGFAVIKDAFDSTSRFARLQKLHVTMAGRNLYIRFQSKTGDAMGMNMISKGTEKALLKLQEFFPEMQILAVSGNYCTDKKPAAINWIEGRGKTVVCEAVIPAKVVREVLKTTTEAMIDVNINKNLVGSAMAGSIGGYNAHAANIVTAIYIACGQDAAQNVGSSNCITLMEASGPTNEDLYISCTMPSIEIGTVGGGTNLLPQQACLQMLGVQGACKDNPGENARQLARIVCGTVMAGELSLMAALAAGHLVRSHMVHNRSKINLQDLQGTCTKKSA
Method: CHO-7 (Chinese hamster ovary cell, a clone of CHO-K1 cell line selected for growth in LPDS) and Huh7 (a human hepatocellular carcinoma cell line), SRD-13A (a Scap-deficient CHO-7 cell line) and SRD-15 (an Insig-1 and Insig-2-deficient CHO-7 cell line) were generous gifts from Russell Debose-Boyd at UT Southwestern Medical Center, USA. All cells were grown in a monolayer at 37 °C with 5% CO2. Huh7 cells were maintained in medium A supplemented with 10% FBS. CHO-7 and SRD-15 cells were maintained in medium B supplemented with 5% FBS. SRD-13A cells were maintained in medium B with 5% FBS, 5 μg ml^−1 cholesterol, 1 mM sodium mevalonate, 10 μM sodium oleate. No cell lines used in this study were found in the database of commonly misidentified cell lines that is maintained by ICLAC and NCBI Biosample. The cell lines have not been authenticated recently. No test for mycoplasma contamination was performed.
(§1) Cells were harvested and homogenized in the RIPA buffer (50 mM Tris-HCl, pH 8.0, 150 mM NaCl, 2 mM MgCl2, 1.5% NP-40, 0.1% SDS, and 0.5% sodium deoxycholate) supplemented with protease cocktail inhibitor, 10 μM MG-132, 10 μg ml^−1 leupeptin and 1 mM phenylmethylsulfonyl fluoride. The protein concentrations of lysates were determined using BCA method (Beyotime). Samples were mixed with the membrane protein solubilization buffer (62.5 mM Tris-HCl, pH 6.8, 15% SDS, 8 M urea, 10% glycerol, and 100 mM DTT) plus the 4× loading buffer (150 mM Tris-HCl, pH 6.8, 12% SDS, 30% glycerol, 6% 2-mercaptoethanol, and 0.02% bromophenol blue) and incubated for 30 min at 37 °C. Proteins were resolved by SDS-PAGE and transferred to nitrocellulose membranes (GE Healthcare). Immnoblots were blocked with 5% non-fat milk in TBS containing 0.075% Tween-20 (TBST) and probed with indicated antibodies overnight at 4 °C. After washing in TBST for five times, blots were incubated with HRP-conjugated secondary antibodies for 2 h at room temperature. Immunoreactivity was developed with Clarity Western ECL chemiluminescent substrates (170–5061, Bio-Rad). Western blot images were captured by Amersham Imager 600 (GE Healthcare), and integrated optical intensities of each band were quantified by Image-Pro Plus 6 software (Media Cybernetics). Uncropped blots are shown in Supplementary Figs. 9–13.

HMGCR (TM1-8)-GFP [1] = target: T2, HMGCR (TM1-8)-GFP (Cricetulus griseus, UniProt P00347)
T2 sequence (P00347 1-346): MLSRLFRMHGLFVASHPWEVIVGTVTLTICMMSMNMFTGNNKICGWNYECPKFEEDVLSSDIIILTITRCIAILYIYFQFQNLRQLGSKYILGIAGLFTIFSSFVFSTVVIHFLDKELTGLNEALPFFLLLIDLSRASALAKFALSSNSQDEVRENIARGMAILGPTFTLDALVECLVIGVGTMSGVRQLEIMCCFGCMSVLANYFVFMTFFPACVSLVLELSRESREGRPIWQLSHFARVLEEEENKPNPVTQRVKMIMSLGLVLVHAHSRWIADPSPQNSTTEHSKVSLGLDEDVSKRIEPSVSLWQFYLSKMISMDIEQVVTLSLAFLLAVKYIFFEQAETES
Method: (§3) We thus generated a cell line stably expressing the transmembrane domain of HMGCR fused with green fluorescent protein (GFP) as a reporter (HMGCR (TM1-8)-GFP) (Fig. 2a).
(§4) CHO-7 cells were transfected with pCMV-HMGCR (TM1-8)-GFP using FuGENE HD. Twenty-four hours, cells were switched to medium B supplemented with 5% FBS and selected in the presence of 1 mg ml^−1 G418 for 2 weeks. Surviving colonies were isolated and confirmed for GFP expression by immunoblotting and immunofluorescence. The resulting CHO-7/HMGCR (TM1-8)-GFP stable cell line (CHG) was maintained in medium B supplemented with 5% FBS and 200 μg ml^−1 G418.
(§5) CHG cells were treated as described in figure legends. Briefly, cells were seeded at day 0 in 96-well black plate (3904, Corning) at a density of 1.5 × 10^4 cells per well, in medium B containing with 5% LPDS. Day 1, corresponding compounds were added as figure legends described in medium B with 5% LPDS, 1 μM lovastatin, 50 μM sodium mevalonate for 16 h. Then cells were fixed with 4% paraformaldehyde for 20 min, washed with PBS for three times, and stained with 2 μg ml^−1 Hoechst 33342.
(§6) The fluorescent images (GFP and Hoechst channel) were captured using an Operatta High-Content Imaging System (PerkinElmer) with a ×20 objective. The cytoplasmic GFP fluorescence was measured with the Harmony Software (PerkinElmer). Five random selected filed per well were captured, and about 3000 cells were used to determine the mean cytoplasmic GFP fluorescent intensity per cell after subtracting background GFP intensity. The average GFP intensity of DMSO-treated cells was defined as 100.

HMGCR (TM1-8)-GFP [2] = target: T2, HMGCR (TM1-8)-GFP; assay: HMGCR (TM1-8)-GFP fluorescent assay (high-content imaging) in CHG cells
Method: as §3, §4, §5, §6

HMGCR (TM1-8)-GFP [3] = target: T2, HMGCR (TM1-8)-GFP; assay: Immunoblotting of overexpressed HMGCR (TM1-8)-GFP in CHG cells; assay type: cell-based, hamster; design: corresponding to the amino acids from 1 to 346 of hamster HMGCR; expressed in transfected cells; settings: 16 h, DMSO = 100
Method: Fig. 2 A reporting system that measures HMGCR degradation. a Schematic of the HMGCR (TM1-8)-GFP fusion protein. […] Data are from three independent experiments and presented as mean ± SD. Source data are provided as a Source Data File.
as §1

Hmgcr mRNA = assay: RT-qPCR of Hmgcr mRNA in CHO-7 cells; assay type: cell-based, Chinese hamster; settings: CHO-7 cells, statin 16 h (lovastatin up to 10 μM), DMSO = 1
Method: (§2) Cells were treated as described in corresponding figure legends, then total RNA was extracted from cells or mouse livers using TRI Reagent (T9424, Sigma-Aldrich). Equal amounts of RNA from cells or mice receiving the same treatment were pooled were used for cDNA synthesis with oligo dT and reverse transcriptase MLV (Promega). Gene expression was analyzed by quantitative real-time PCR on a Stratagene Mx30005PTM Q-PCR Systems. The primers used were listed in Supplementary Tables 2–4.

LXR signaling pathway [4] = assay: RT-qPCR of LXR target genes (SREBP-1c, ABCA1, ABCG8) in Huh-7 cells; assay type: cell-based, human; settings: 16 h
Method: as §2, with “2–4. […]” for “2–4.”
pathway. a-c Huh-7 cells were treated with indicated compounds for 16 h and then harvested for total RNA isolation and RT-qPCR. Cells treated with LXR agonist T0901317 w ere used as positive controls. The relative mRNA levels of SREBP -1c (a), ABCA1 (b) and ABCG8 (c) were quantified . GAPDH was the reference gene. The relative mRNA level in DMSO-treated cells was defined as 1. Data are from 3 independent experiments and presented as mean ± SD.
(1 picture or pasted object on this page, not shown here)

LXR signaling pathway [5] = system: LXR signaling pathway; design: method as in earlier work; settings: previous studies ref 2 (Yang, C. et al. J. Biol. Chem. 281, 27816-27826 (2006)); cited from earlier work
[6] = 16 h, read-out: HMGCR (TM1-8)-GFP fluorescent intensity, mean
[7] = read-out: Mean (HMGCR (TM1-8)-GFP signal relative to 0 μM = 100)

For `CC(C)CCC[C@@H](C)[C@H]1CC[C@H]2[C@@H]3CC=C4C[C@@H](O)CC[C@]4(C)[C@H]3CC[C@]12C` [Cholesterol], the “endogenous HMGCR protein level (immunoblot), mean” value (“endogenous HMGCR protein level” below) (HMGCR; 1 uM) was 100.862, the “endogenous HMGCR protein level” value (HMGCR; 3 uM) was 95.8793 and the “endogenous HMGCR protein level” value (HMGCR; 10 uM) was 57.8709. For the same compound, the DC50 (HMGCR (TM1-8)-GFP [1]) was ~30.4 µM and 30.4 µM, the remaining activity at 0.001 µM (HMGCR (TM1-8)-GFP [2]; [6]) was 100% and the remaining activity at 0.01 µM (HMGCR (TM1-8)-GFP [2]; [6]) was 100%. For the same compound, the remaining activity at 0.1 µM (HMGCR (TM1-8)-GFP [2]; [6]) was 95.9%, the remaining activity at 0.3 µM (HMGCR (TM1-8)-GFP [2]; [6]) was 88.9% and the remaining activity at 1 µM (HMGCR (TM1-8)-GFP [2]; [6]) was 77.2%. It also gave a remaining activity at 3 µM (HMGCR (TM1-8)-GFP [2]; [6]) of 66.6%, a remaining activity at 10 µM (HMGCR (TM1-8)-GFP [2]; [6]) of 65.5% and a remaining activity at 20 µM (HMGCR (TM1-8)-GFP [2]; [6]) of 58.9%. For the same compound, the remaining activity at 30 µM (HMGCR (TM1-8)-GFP [2]; [6]) was 47%, the “overexpressed HMGCR (TM1-8)-GFP protein level (anti-GFP immunoblot), mean” value (“overexpressed HMGCR” below) (HMGCR (TM1-8)-GFP [3]; 1 uM) was 93.1421 and the “overexpressed HMGCR” value (HMGCR (TM1-8)-GFP [3]; 3 uM) was 90.7374. For the same compound, the “overexpressed HMGCR” value (HMGCR (TM1-8)-GFP [3]; 10 uM) was 74.0079.

With `CCC(O)CCCCC[C@@H](C)C1CCC2C3C(CC[C@@]21C)[C@@]1(C)CC[C@H](O)C(C)(C)C1=C[C@@H]3O` (some centres unmarked) [Compound 125] the DC50 (HMGCR (TM1-8)-GFP [1]) was 1.83 µM, the remaining activity at 0.156 µM (HMGCR (TM1-8)-GFP [2]; [7]) was 83.6% and the remaining activity at 0.313 µM (HMGCR (TM1-8)-GFP [2]; [7]) was 77.5%. The remaining activity at 0.625 µM (HMGCR (TM1-8)-GFP [2]; [7]) was 65.3%, the remaining activity at 1.25 µM (HMGCR (TM1-8)-GFP [2]; [7]) was 50.2% and the remaining activity at 2.5 µM (HMGCR (TM1-8)-GFP [2]; [7]) was 41.6%. For the same compound, the remaining activity at 5 µM (HMGCR (TM1-8)-GFP [2]; [7]) was 34.7% and the remaining activity at 10 µM (HMGCR (TM1-8)-GFP [2]; [7]) was 33.6%.

`C=CCC(O)CCCCC[C@@H](C)C1CCC2C3C(CC[C@@]21C)[C@@]1(C)CC[C@H](O)C(C)(C)C1=C[C@@H]3O` (some centres unmarked) [Compound 126] showed a DC50 (HMGCR (TM1-8)-GFP [1]) of 2.45 µM, a remaining activity at 0.156 µM (HMGCR (TM1-8)-GFP [2]; [7]) of 76.4% and a remaining activity at 0.313 µM (HMGCR (TM1-8)-GFP [2]; [7]) of 72.3%. For the same compound, the remaining activity at 0.625 µM (HMGCR (TM1-8)-GFP [2]; [7]) was 58.7%, the remaining activity at 1.25 µM (HMGCR (TM1-8)-GFP [2]; [7]) was 50.3% and the remaining activity at 2.5 µM (HMGCR (TM1-8)-GFP [2]; [7]) was 44.6%. The remaining activity at 5 µM (HMGCR (TM1-8)-GFP [2]; [7]) was 45.5% and the remaining activity at 10 µM (HMGCR (TM1-8)-GFP [2]; [7]) was 44.4%.

In the case of `CC(C)c1c(C(=O)Nc2ccccc2)c(-c2ccccc2)c(-c2ccc(F)cc2)n1CC[C@@H](O)C[C@@H](O)CC(=O)O` [atorvastatin], the “increase of HMGCR protein (maximum increment)” value (shortened to “increase of HMGCR protein”) (HMGCR) is reported as about 9 fold and the “increase of Hmgcr mRNA abundance” value (Hmgcr mRNA) is reported as 1.8 fold.

With `CC(C)n1c(/C=C/C(O)CC(O)CC(=O)O)c(-c2ccc(F)cc2)c2ccccc21` (centres unmarked) [fluvastatin] the “increase of HMGCR protein” value (HMGCR) was about 11 fold and the “increase of Hmgcr mRNA abundance” value (Hmgcr mRNA) was 2.6 fold.

For `CC(C)=CCC[C@@H](C)[C@H]1CC[C@@]2(C)C3=C(CC[C@]12C)[C@@]1(C)CC[C@H](O)C(C)(C)[C@@H]1CC3` [lanosterol], the “expression of LXR target genes (SREBP-1c, ABCA1 and ABCG8) mRNA” value (LXR signaling pathway [4]) is listed as “did not activate the LXR target genes” and the “activation of LXR” value (LXR signaling pathway [5]) is listed as “no effect”.

In the case of `CC[C@H](C)C(=O)O[C@H]1C[C@H](O)C=C2C=C[C@H](C)[C@H](CC[C@@H](O)C[C@@H](O)CC(=O)O)[C@H]21` [pravastatin], the “increase of HMGCR protein” value (HMGCR) is reported as about 12 fold and the “increase of Hmgcr mRNA abundance” value (Hmgcr mRNA) is reported as 2.4 fold.

For `CC(C)c1nc(N(C)S(C)(=O)=O)nc(-c2ccc(F)cc2)c1/C=C/[C@@H](O)C[C@@H](O)CC(=O)O` [rosuvastatin], the “increase of HMGCR protein” value (HMGCR) was about 17 fold and the “increase of Hmgcr mRNA abundance” value (Hmgcr mRNA) was 2.3 fold.

With `CCC(C)(C)C(=O)O[C@H]1C[C@@H](C)C=C2C=C[C@H](C)[C@H](CC[C@@H]3C[C@@H](O)CC(=O)O3)[C@H]21` [simvastatin] the “increase of HMGCR protein” value (HMGCR) was ~ 15 fold and the “increase of Hmgcr mRNA abundance” value (Hmgcr mRNA) was 3.5 fold.
